This is an account of results in patent US11912677B1, “1,3-benzothiazol-2-yl-N'-[(3-phenylprop-2-enoyl)oxy]ethanimidamide as an anticancer and antimicrobial compound” (KING FAISAL UNIVERSITY, priority 2023, dated 2024).

Molecules are shown by their SMILES.

For series [1], the system named is human prostate cancer cells (PC3). The series is described as follows: Assessment of cytotoxicity by SRB assay, PC3 cells. In kind it is cell-based. The note with it: 0.01 μM to 100 μM, 72 h. How it is done:
(§1) The human prostate cancer cells (PC3) and human osteosarcoma cells (MG-63) were obtained from Nawah Scientific Inc. (Mokatam, Cairo, Egypt) and cultured in DMEM (Dulbecco's modified eagle's medium), Gibco, USA, supplemented with fetal bovine serum […] at a concentration of 10% and 100 U/mL of penicillin and streptomycin (PS). The Cells were incubated at 37° C. in a humidified environment that contained 5% CO2.
(§2) Cells were seeded in 96-well plates as aliquots of 100 μL cell suspension and incubated in a complete media for 24 h. Afterward, cells were treated with 1,3-benzothiazol-2-yl-N′-[(3-phenylprop-2-enoyl)oxy]ethanimidamide at diverse concentrations ranging from 0.01 μM to 100 μM for 72 h. Then, cells were fixed at 4° C. for one hour with 150 μL of 10% trichloroacetic acid (TCA). […] Then, 150 μL of Tris pH 10.5 (10 mM) was added, and the absorbance was measured at 540 nm using a BMG LABTECH®—FLUOstar Omega microplate reader (Ortenberg, Germany). Half maximal inhibitory concentrations (IC50) values were calculated for each experiment using GraphPad Prism 6 software. […] The inhibition was calculated using the following equation: Inhibition %=100−Average Viability
(§3) The anticancer activity of 1,3-benzothiazol-2-yl-N′-[(3-phenylprop-2-enoyl)oxy]ethanimidamide was assessed against highly aggressive androgen-independent metastatic human prostate cancer cells (PC3) and osteosarcoma (MG-63) cells.
(Sulforhodamine B stains cellular protein and so reports cell mass.)

In series [2] the test system is human osteosarcoma cells (MG-63). The series is described as follows: Assessment of cytotoxicity by SRB assay, MG-63 cells. In kind it is cell-based. To be noted: 0.01 μM to 100 μM, 72 h. How it is done:
as §1, §2, §3

Consider `N/C(Cc1nc2ccccc2s1)=N\OC(=O)/C=C/c1ccccc1` [1,3-benzothiazol-2-yl-N′-[(3-phenylprop-2-enoyl)oxy]ethanimidamide], for which the melting point (as a rule, the temperature, or range, at which the solid turns liquid) was 157 to 159 °C. Moreover, the “antiproliferative activity against prostate cancer cells (PC3)” value in series [1] is recorded as “excellent antiproliferative activities”. Further, in series [2], the “antiproliferative activity against osteosarcoma (MG-63) cells” value is on record as “excellent antiproliferative activities”.
